Results as given in patent US9469650B2, “Melampomagnolide B derivatives” (BOARD OF TRUSTEES OF THE UNIVERSITY OF ARKANSAS, priority 2013, dated 2016).
Like-named read-outs stand apart in the source and are kept apart here.

How the values were obtained:
[1] = tested on: HL-60(TB)
[2] = tested on: CCRF-CEM; test: panel of 60 human tumor cell lines, growth inhibition (Leukemia)
[3] = tested on: SR; test: as above
[4] = tested on: SK-MEL-2; test: panel of 60 human tumor cell lines, growth inhibition (Melanoma); settings: SK-MEL-2
[5] = tested on: SK-MEL-28; test: as above; settings: SK-MEL-28
[6] = tested on: UACC-257; test: as above; settings: UACC-257
[7] = tested on: UACC-62; test: as above; settings: UACC-62
[8] = tested on: SNB-75; test: panel of 60 human tumor cell lines, growth inhibition (CNS Cancer); settings: SNB-75
[9] = tested on: HCT-116; test: panel of 60 human tumor cell lines, growth inhibition (Colon Cancer); settings: HCT-116
[10] = tested on: HT29; test: as above; settings: HT29
[11] = tested on: KM12; test: as above; settings: KM12
[12] = tested on: SN12C; test: panel of 60 human tumor cell lines, growth inhibition (Renal Cancer)
[13] = tested on: TK-10; test: as above; settings: TK-10
[14] = tested on: MDA-MB-231/ATCC; test: panel of 60 human tumor cell lines, growth inhibition (Breast Cancer); settings: MDA-MB-231/ATCC
[15] = tested on: MDA-MB-468; test: as above; settings: MDA-MB-468
[16] = tested on: OVCAR-3; test: panel of 60 human tumor cell lines, growth inhibition (Ovarian Cancer); settings: OVCAR-3
[17] = tested on: OVCAR-8; test: as above; settings: OVCAR-8
[18] = tested on: A549/ATCC; test: panel of 60 human tumor cell lines, growth inhibition (Non-Small Cell Lung Cancer); settings: A549/ATCC

`C=C1C(=O)O[C@H]2[C@H]1CC/C(COC(=O)CCC(=O)N1CCC(C)CC1)=C\CC[C@@]1(C)O[C@@H]21` [JVM 2-70] was tested, and the “Percent Growth” value ([1]; Log10 Concentration −4.0) was −59%, the “Percent Growth” value ([1]; Log10 Concentration −5.0) was −12% and the “Percent Growth” value ([1]; Log10 Concentration −6.0) was 112%. For the same compound, the “Percent Growth” value ([1]; Log10 Concentration −7.0) was 111%, the “Percent Growth” value ([1]; Log10 Concentration −8.0) was 110% and the GI50 ([1]; NCI five dose) was 3.16 µM. The TGI ([1]; NCI five dose) was 7.96E−6, the CC50 ([1]; read-out: LC50, NCI five dose) was 63.1 µM and the “Percent Growth” value ([2]; Log10 Concentration −4.0) was −56%. The “Percent Growth” value ([2]; Log10 Concentration −5.0) was −32%, the “Percent Growth” value ([2]; Log10 Concentration −6.0) was 64% and the “Percent Growth” value ([2]; Log10 Concentration −7.0) was 92%. For the same compound, the “Percent Growth” value ([2]; Log10 Concentration −8.0) was 98%, the GI50 ([2]; NCI five dose) was 1.4 µM and the TGI ([2]; NCI five dose) was 4.68E−6. For the same compound, the “Percent Growth” value ([3]; Log10 Concentration −4.0) was −38%, the “Percent Growth” value ([3]; Log10 Concentration −5.0) was 6% and the “Percent Growth” value ([3]; Log10 Concentration −6.0) was 84%. For the same compound, the “Percent Growth” value ([3]; Log10 Concentration −7.0) was 102%, the “Percent Growth” value ([3]; Log10 Concentration −8.0) was 101% and the GI50 ([3]; NCI five dose) was 2.72 µM. For the same compound, the TGI ([3]; NCI five dose) was 1.39E−5, the “Percent Growth” value ([4]; Log10 Concentration −4.0) was −82% and the “Percent Growth” value ([4]; Log10 Concentration −5.0) was 68%. For the same compound, the “Percent Growth” value ([4]; Log10 Concentration −6.0) was 108%, the “Percent Growth” value ([4]; Log10 Concentration −7.0) was 112% and the “Percent Growth” value ([4]; Log10 Concentration −8.0) was 106%. The GI50 ([4]; NCI five dose) was 13.1 µM, the TGI ([4]; NCI five dose) was 2.83E−5 and the “Percent Growth” value ([5]; Log10 Concentration −4.0) was −79%. For the same compound, the “Percent Growth” value ([5]; Log10 Concentration −5.0) was 4%, the “Percent Growth” value ([5]; Log10 Concentration −6.0) was 95% and the “Percent Growth” value ([5]; Log10 Concentration −7.0) was 100%. The “Percent Growth” value ([5]; Log10 Concentration −8.0) was 89%, the GI50 ([5]; NCI five dose) was 3.1 µM and the TGI ([5]; NCI five dose) was 1.11E−5. For the same compound, the “Percent Growth” value ([6]; Log10 Concentration −4.0) was −86%, the “Percent Growth” value ([6]; Log10 Concentration −5.0) was 23% and the “Percent Growth” value ([6]; Log10 Concentration −6.0) was 83%. The “Percent Growth” value ([6]; Log10 Concentration −7.0) was 92%, the “Percent Growth” value ([6]; Log10 Concentration −8.0) was 91% and the GI50 ([6]; NCI five dose) was 3.57 µM. The TGI ([6]; NCI five dose) was 1.64E−5, the “Percent Growth” value ([7]; Log10 Concentration −4.0) was −87% and the “Percent Growth” value ([7]; Log10 Concentration −5.0) was 33%. The “Percent Growth” value ([7]; Log10 Concentration −6.0) was 92%, the “Percent Growth” value ([7]; Log10 Concentration −7.0) was 94% and the “Percent Growth” value ([7]; Log10 Concentration −8.0) was 97%. For the same compound, the GI50 ([7]; NCI five dose) was 5.15 µM, the TGI ([7]; NCI five dose) was 1.89E−5 and the “Percent Growth” value ([8]; Log10 Concentration −4.0) was −85%. The “Percent Growth” value ([8]; Log10 Concentration −5.0) was 57%, the “Percent Growth” value ([8]; Log10 Concentration −6.0) was 80% and the “Percent Growth” value ([8]; Log10 Concentration −7.0) was 81%. For the same compound, the “Percent Growth” value ([8]; Log10 Concentration −8.0) was 72%, the GI50 ([8]; NCI five dose) was 11.2 µM and the TGI ([8]; NCI five dose) was 2.53E−5. The “Percent Growth” value ([9]; Log10 Concentration −4.0) was −93%, the “Percent Growth” value ([9]; Log10 Concentration −5.0) was −46% and the “Percent Growth” value ([9]; Log10 Concentration −6.0) was 79%. For the same compound, the “Percent Growth” value ([9]; Log10 Concentration −7.0) was 95%, the “Percent Growth” value ([9]; Log10 Concentration −8.0) was 91% and the GI50 ([9]; NCI five dose) was 1.69 µM. For the same compound, the TGI ([9]; NCI five dose) was 4.25E−6, the “Percent Growth” value ([10]; Log10 Concentration −4.0) was −87% and the “Percent Growth” value ([10]; Log10 Concentration −5.0) was 19%. For the same compound, the “Percent Growth” value ([10]; Log10 Concentration −6.0) was 103%, the “Percent Growth” value ([10]; Log10 Concentration −7.0) was 106% and the “Percent Growth” value ([10]; Log10 Concentration −8.0) was 99%. The GI50 ([10]; NCI five dose) was 4.28 µM, the TGI ([10]; NCI five dose) was 1.51E−5 and the “Percent Growth” value ([11]; Log10 Concentration −4.0) was −87%. The “Percent Growth” value ([11]; Log10 Concentration −5.0) was 62%, the “Percent Growth” value ([11]; Log10 Concentration −6.0) was 98% and the “Percent Growth” value ([11]; Log10 Concentration −7.0) was 102%. The “Percent Growth” value ([11]; Log10 Concentration −8.0) was 102%, the GI50 ([11]; NCI five dose) was 12.1 µM and the TGI ([11]; NCI five dose) was 2.61E−5. For the same compound, the “Percent Growth” value ([12]; Log10 Concentration −4.0) was −82%, the “Percent Growth” value ([12]; Log10 Concentration −5.0) was 30% and the “Percent Growth” value ([12]; Log10 Concentration −6.0) was 92%. For the same compound, the “Percent Growth” value ([12]; Log10 Concentration −7.0) was 93%, the “Percent Growth” value ([12]; Log10 Concentration −8.0) was 97% and the GI50 ([12]; NCI five dose) was 4.8 µM. For the same compound, the TGI ([12]; NCI five dose) was 1.86E−5, the “Percent Growth” value ([13]; Log10 Concentration −4.0) was −97% and the “Percent Growth” value ([13]; Log10 Concentration −5.0) was 9%. For the same compound, the “Percent Growth” value ([13]; Log10 Concentration −6.0) was 109%, the “Percent Growth” value ([13]; Log10 Concentration −7.0) was 106% and the “Percent Growth” value ([13]; Log10 Concentration −8.0) was 97%. For the same compound, the GI50 ([13]; NCI five dose) was 3.9 µM, the TGI ([13]; NCI five dose) was 1.23E−5 and the “Percent Growth” value ([14]; Log10 Concentration −4.0) was −85%. The “Percent Growth” value ([14]; Log10 Concentration −5.0) was 41%, the “Percent Growth” value ([14]; Log10 Concentration −6.0) was 102% and the “Percent Growth” value ([14]; Log10 Concentration −7.0) was 97%. The “Percent Growth” value ([14]; Log10 Concentration −8.0) was 105%, the GI50 ([14]; NCI five dose) was 7.13 µM and the TGI ([14]; NCI five dose) was 2.12E−5. For the same compound, the “Percent Growth” value ([15]; Log10 Concentration −4.0) was −69%, the “Percent Growth” value ([15]; Log10 Concentration −5.0) was −33% and the “Percent Growth” value ([15]; Log10 Concentration −6.0) was 52%. For the same compound, the “Percent Growth” value ([15]; Log10 Concentration −7.0) was 92%, the “Percent Growth” value ([15]; Log10 Concentration −8.0) was 88% and the GI50 ([15]; NCI five dose) was 1.06 µM. For the same compound, the TGI ([15]; NCI five dose) was 4.06E−6, the CC50 ([15]; read-out: LC50, NCI five dose) was 29.8 µM and the “Percent Growth” value ([16]; Log10 Concentration −4.0) was −96%. For the same compound, the “Percent Growth” value ([16]; Log10 Concentration −5.0) was −2%, the “Percent Growth” value ([16]; Log10 Concentration −6.0) was 88% and the “Percent Growth” value ([16]; Log10 Concentration −7.0) was 105%. For the same compound, the “Percent Growth” value ([16]; Log10 Concentration −8.0) was 109%, the GI50 ([16]; NCI five dose) was 2.85 to 6 µM and the TGI ([16]; NCI five dose) was 9.47E−6. For the same compound, the “Percent Growth” value ([17]; Log10 Concentration −4.0) was −88%, the “Percent Growth” value ([17]; Log10 Concentration −5.0) was 15% and the “Percent Growth” value ([17]; Log10 Concentration −6.0) was 89%. For the same compound, the “Percent Growth” value ([17]; Log10 Concentration −7.0) was 95%, the “Percent Growth” value ([17]; Log10 Concentration −8.0) was 94% and the GI50 ([17]; NCI five dose) was 3.37 µM. For the same compound, the TGI ([17]; NCI five dose) was 1.39E−5, the “Percent Growth” value ([18]; Log10 Concentration −4.0) was −68% and the “Percent Growth” value ([18]; Log10 Concentration −5.0) was 79%. For the same compound, the “Percent Growth” value ([18]; Log10 Concentration −6.0) was 93%, the “Percent Growth” value ([18]; Log10 Concentration −7.0) was 96% and the “Percent Growth” value ([18]; Log10 Concentration −8.0) was 97%. It also gave a GI50 ([18]; NCI five dose) of 15.8 µM and a TGI ([18]; NCI five dose) of 3.47E−5.
